From patent publication EP1138682A1, “Novel water soluble c-ring analogues of 20 (s)-camptothecin” (priority 1996, dated 1997)
Like-named read-outs stand apart in the source and are kept apart here.

Legend:
[1] = tested on: NCI's 60 human tumor cell line; test: NCI 60 human tumor cell line assay (sulforhodamine B); type: cell-based; settings: read-out: IC50 (the source's name)
Protocol: Each test compound was screened against a battery of 60 human cell lines obtained from eight organs. In a typical procedure, the cell suspensions that were diluted according to the particular cell type and the expected target cell density (5000-40,000 cells per well based on cell growth characteristics) were added into 96-well microtiter plates. Inoculates were allowed a preincubation period of 24h at 37°C. for stabilization. Dilutions at twice the intended test concentrations were added at time zero in 100-µl aliquots to microtiter plate wells. Usually test compounds were evaluated at five 10-fold dilutions. The highest well concentration used in the test is 10^-4M. The cells are then incubated in the presence of drug (the test compound) for further 48h in 5% CO2 atmosphere and 100% humidity. At the end of this time, the adherent cells are fixed to the plate by means of trichloroacetic acid, and after a number of washes, the cell layer is treated with the protein stain Sulforhodamine B. The optical density which is proportional to protein mass, is then read by automated spectrophotometric plate readers at a wavelength of 515 nm. Readings are transferred to a microcomputer and final reports are generated using especially developed software.

Human Serum Albumin = Human Serum Albumin (Homo sapiens, UniProt P02768); settings: in the presence of HSA at 37°C; comparison in words; cited from earlier work
[2] = mean value of GI50 (50% cell growth inhibition) over NCI's 60 human tumor cell lines, 48h incubation with drug

Chain of Human Serum Albumin (P02768 25-609): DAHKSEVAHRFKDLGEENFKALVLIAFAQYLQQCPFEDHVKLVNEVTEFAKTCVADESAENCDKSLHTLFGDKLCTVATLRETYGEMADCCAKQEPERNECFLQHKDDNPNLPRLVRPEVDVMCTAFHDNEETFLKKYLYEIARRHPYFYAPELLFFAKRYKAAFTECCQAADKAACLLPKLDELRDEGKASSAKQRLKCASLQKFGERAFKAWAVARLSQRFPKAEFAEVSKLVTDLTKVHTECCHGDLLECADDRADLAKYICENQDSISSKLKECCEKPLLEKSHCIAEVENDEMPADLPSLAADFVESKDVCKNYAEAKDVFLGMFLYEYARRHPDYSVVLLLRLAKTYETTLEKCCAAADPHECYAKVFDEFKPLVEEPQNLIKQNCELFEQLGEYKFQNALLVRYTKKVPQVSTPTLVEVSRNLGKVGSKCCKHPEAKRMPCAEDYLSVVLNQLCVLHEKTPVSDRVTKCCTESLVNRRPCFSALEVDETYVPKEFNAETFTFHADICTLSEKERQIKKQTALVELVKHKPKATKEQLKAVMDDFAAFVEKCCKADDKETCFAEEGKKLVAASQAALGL

| Compound | GI50 [1, 2] [µM] | other results |
| --- | --- | --- |
| CCOC1c2cc3c(O)cccc3nc2-c2cc3c(c(=O)n21)COC(=O)[C@]3(O)CC (stereo partly shown) [Example 11, 5-Ethoxy-9-hydroxycamptothecin] | 6.68 | – |
| CC[C@@]1(O)C(=O)OCc2c1cc1n(c2=O)C(OCCOC)c2cc3ccccc3nc2-1 (stereo partly shown) [Example 43, 5-(2'-methoxyethoxy)camptothecin] | 2.23 | – |
| 5-(2'-aminoethoxy)-7-ethylcamptothecin [Example 37] | 18.6 | – |
| CC[C@@]1(O)C(=O)OCc2c1cc1n(c2=O)C(OCC(F)(F)F)c2cc3cc(O)ccc3nc2-1 (stereo partly shown) [Example 27, 10-Hydroxy-5-trifluoroethoxycamptothecin] | 0.38 | – |
| CCc1c2c(nc3ccc(O)cc13)-c1cc3c(c(=O)n1C2)COC(=O)[C@]3(O)CC [SN-38, 7-ethyl-10-hydroxycamptothecin] | – | percentage (%) of lactone form at equilibrium (Human Serum Albumin): higher percentage (%) of lactone form at equilibrium than 20(S) camptothecin of the formula 3 and 9-aminocamptothecin of the formula 6 |
| CC[C@@]1(O)C(=O)OCc2c1cc1n(c2=O)C(OCCO)c2cc3c([N+](=O)[O-])cccc3nc2-1 (stereo partly shown) [9-Nitro-5-(2'-hydroxyethoxy)camptothecin] | – | GI50 ([1]; Homo sapiens, 48 h): 7.94 µM |
| 5-(2'-N-pyrrolidinoethoxy)-7-ethylcamptothecin [Example 39] | 18.6 | – |
